Experiment [1] relates to HDMB03 (HDMBO3) group 3 medulloblastoma cells. Briefly: CellTiter-Glo dose-response growth assay. In kind it is cell-based. The conditions noted are these: Homo sapiens, HD-MB03; HDMBO3 G3MB cell growth; read-out: IC50 (nM) HDMBO3. In short, it runs like this: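 Growth of the G3MB line HDMB03 was assessed across compound concentrations. Cells went into 384-well plates at 500 cells per well in growth medium and were exposed to compound for the indicated time. A CellTiter-Glo luminescence assay, run per manufacturer instructions and read on an Envision 2104 instrument, quantified remaining cell growth.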
(In general: ATP-based viability assays read luminescence as a measure of living cells.)

Experiment [2] addresses T1, BRD4-BD1 (BRD4-1) (Homo sapiens, UniProt O60885).
T1 construct: BRD4-BD1 (residues 44-168); 6xHis (cleaved yes); host or cells: E. coli BL21 (DE3) RIL
As to the kind of experiment: Isothermal titration calorimetry (ITC). In kind it is binding. The method, then:
(§1) At OD600 of 0.6, the culture was cooled down to 18 °C and induced with 0.1 mM IPTG. After 18 h growth, the culture was harvested by centrifugation at 6000 × g for 25 min and stored at -80 °C. Harvested cell pellets were re-suspended in 50 mM Na/K phosphate buffer (pH 7.4) containing 100 mM NaCl, 40 mM imidazole, 0.01% w/v lysozyme and 0.01% v/v Triton X-100 at 4 °C for 1 h, subjected to sonication and the lysate was clarified by centrifugation (30,000 × g for 45 min at 4 °C). Proteins were purified by FPLC at 4 °C using columns and chromatography materials from GE Healthcare. […] Proteins were purified to homogeneity by size exclusion chromatography using Superdex 75 equilibrated with elution buffer (50 mM HEPES pH 7.5, 100 mM NaCl, 2 mM DTT). All BRDs eluted as monomeric protein and were of crystallization grade quality (>95% purity as judged by SDS-PAGE). Pool fractions were combined, concentrated to 10–12 mg/ml, and aliquots were flash-frozen in liquid N2 and stored at −80 °C.
All experiments were conducted using an PEAQ-ITC calorimeter (Malvern Scientific). BRDs were buffer exchanged using PD10 columns (GE life sciences) into 50 mM HEPES pH7.5 and 100 mM NaCl (ITC buffer) before the experiment and concentrated to ∼10 mg/mL. Experiments were carried out in ITC buffer while stirring at 750 rpm through reverse titration. The microsyringe (40 μL load volume) was loaded with the protein sample (250–600 μM protein in ITC buffer) and inserted into the calorimetric cell (0.2 mL cell volume) consisting of compound (20–60 μM in ITC buffer). All titrations were conducted using an initial control injection of 0.2 μL followed by 13 identical injections (~3 μL per injection) with a duration of 2 s (per injection) and a spacing of 150 s between injections. The ratio of protein/compound was optimized to ensure complete saturation of the titrant before the final injection to ensure proper baseline determination. Data were corrected for dilution and analyzed using the MicroCal Origin software to determine the enthalpies of binding (ΔH) and binding constants as described. Thermodynamic parameters were calculated using the basic equation of thermodynamics (ΔG = ΔH − TΔS = −RTlnKB) where ΔG, ΔH and ΔS are the changes in free energy, enthalpy and entropy of binding, respectively. A single binding site model was used for all ligand-protein interactions.
(In general: Isothermal titration calorimetry measures the heat released or taken up as one component is titrated into another.)

For experiment [3], the target named is T2, EP300 bromodomain (Homo sapiens, UniProt Q09472).
T2 construct: 6xHis (cleaved yes); host or cells: E. coli BL21 (DE3) RIL
T2 sequence (Q09472 1048-1161): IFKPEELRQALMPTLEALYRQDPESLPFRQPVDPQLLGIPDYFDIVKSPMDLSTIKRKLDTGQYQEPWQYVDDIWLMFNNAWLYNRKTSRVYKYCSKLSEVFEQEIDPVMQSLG
As to the kind of experiment: Isothermal titration calorimetry (ITC). In kind it is binding. As to conditions: single ITC experiment, data fit ± SEM. The protocol:
as §1, with “After” for “At OD600 of 0.6, the culture was cooled down to 18 °C and induced with 0.1 mM IPTG. After”, “All BRDs eluted as monomeric protein and were of crystallization grade quality (>95% purity as judged by SDS-PAGE).” left out

The target of experiment [4] is T3, CBP bromodomain (Homo sapiens, UniProt Q92793).
T3 construct: CBP (residues 1081-1197); 6xHis (cleaved yes); host or cells: E. coli BL21 (DE3) RIL
As to the kind of experiment: Isothermal titration calorimetry (ITC). It is filed as binding. The conditions noted are these: single ITC experiment, data fit ± SEM. The method, then:
as §1, with “After” for “At OD600 of 0.6, the culture was cooled down to 18 °C and induced with 0.1 mM IPTG. After”, “All BRDs eluted as monomeric protein and were of crystallization grade quality (>95% purity as judged by SDS-PAGE).” left out

In experiment [5] the target is T2, EP300 bromodomain. Briefly: Differential scanning fluorimetry (DSF) thermal shift. It is filed as binding. The conditions noted are these: DSF; 5 μM protein, 100 μM compound; three independent experiments, average ± SD. In short, it runs like this: (§2)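 Thermal shift of 5 μM E. coli-expressed bromodomain with 100 μM compound in 50 mM HEPES pH 7.5, 150 mM NaCl, 2 mM DTT, 2% DMSO, 5X SYPRO Orange, quadruplicate. Heated 25→95 °C at 1 °C/min, fluorescence at 610 nm; ΔTm relative to DMSO reference wells.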
(In DSF a fluorescence change marks the thermal transition of the protein.)

The target of experiment [6] is T1, BRD4-BD1 (BRD4-1). Described as above. In kind it is binding. The conditions noted are these: DSF; 5 μM protein, 100 μM compound; three independent experiments, average ± SD. In short, it runs like this:
as §2

For experiment [7], the system named is CBP bromodomain. Described as above. In kind it is binding. The conditions noted are these: ΔTm (CBP)/ΔTm(BRD4).
For experiment [8], the target named is T3, CBP bromodomain. The description is as above. In kind it is binding. As to conditions: DSF; 5 μM protein, 100 μM compound; three independent experiments, average ± SD.

T3 sequence (Q92793 1081-1197): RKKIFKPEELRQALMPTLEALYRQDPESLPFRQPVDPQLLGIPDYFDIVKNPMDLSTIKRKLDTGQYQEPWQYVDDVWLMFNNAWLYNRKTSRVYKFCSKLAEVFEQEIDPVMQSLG

In the case of `Cc1noc(C)c1-c1ccc2c(c1)nc(C1CCCC(=O)N1)n2C1CCC(NC(=O)OC(C)(C)C)CC1` (stereo not drawn) [Compound 1], the IC50 in experiment [1] is greater than 100000 nM. Besides, the “reduction of activity against BRD4” value on BRD4-BD1 (BRD4-1) [2] (relative to CCS1477) is ~ 10 fold. In addition, the Kd on BRD4-BD1 (BRD4-1) [2] (single ITC experiment, data fit ± SEM) stood at 4210 ± 400 nM; on EP300 bromodomain [3] it was 2300 ± 386 nM; on CBP bromodomain [4], 1550 ± 600 nM. For the same compound, at EP300 bromodomain [5], the “∆Tm (°C) EP300” value stood at 7.3 ± 1.3 °C. Also, the “∆Tm (°C) BRD4-1” value at BRD4-BD1 (BRD4-1) [6] amounted to 2.1 ± 0.06 °C. Moreover, in the experiment with CBP bromodomain [7], the “Ratio CBP/BRD4 of ∆Tm” value worked out at 3.7. For the same compound, the “∆Tm (°C) CBP” value on CBP bromodomain [8] is 7.8 ± 0.43 °C.

For orientation: IC50 means the concentration at which inhibition is half-maximal. In general, Kd refers to the equilibrium constant for the complex coming apart.

The values are drawn from paper PMC11045757, “Group 3 medulloblastoma transcriptional networks collapse under domain specific EP300/CBP inhibition” (Nature Communications, 2024).
